Data as given in paper PMC11594916, “In Vitro Cell Model Investigation of Alpha-Synuclein Aggregate Morphology Using Spectroscopic Imaging” (International Journal of Molecular Sciences, 2024).

Biological target: T1, alpha-synuclein (αsyn) pre-formed fibrils (Homo sapiens, UniProt P37840)
T1 construct: gene SNCA; Full-length wildtype human αsyn, pre-formed amyloid fibrils (PFFs)
Assay: fluorescence titration of h-FTAA with […] recombinant fibrils, simulated binding curve; lifetime imaging (FLIM)

O=C(O)Cc1cc(-c2ccc(-c3ccc(C(=O)O)s3)s2)sc1-c1ccc(-c2sc(-c3ccc(-c4ccc(C(=O)O)s4)s3)cc2CC(=O)O)s1 [h-FTAA]
Kd: < 100 nM
